# Where a name gives a salt, the structure may show the parent alone.
# Legend:
# [1] = molecular target: GDP-bound KRAS protein (aa 1-169), containing both G12D and C118A amino acid substitutions (Homo sapiens (Human), UniProt P01116, C118A/G12D); assay: KRAS G12D Coupled Nucleotide Exchange Assay; format: biochemical; conditions: read-out: KRAS G12D Coupled Exchange IC50
# AsPC-1 cells = assay: AsPC-1 CTG Assay (CellTiter-Glo cell viability); format: cell-based, human; conditions: Homo sapiens, ASPC1, 72 h, AsPC-1, 72 h; first value of the cell; read-out: G12D/C/V Cell Proliferation CTG (72 h) AsPC-1
# Outline: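 IC50 values derive from 4-parameter logistic fits of CellTiter-Glo luminescence, expressed relative to DMSO. Compound dilution series were applied to overnight-seeded AsPC-1 or SW620 cells (RPMI 1640, 10% FBS) for 72 h at 37 °C, 5% CO2.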
# [2] = molecular target: His-tagged KRAS G12D protein (Homo sapiens (Human), UniProt P01116, G12D); assay: KRAS G12D TR-FRET Assay; format: binding; conditions: read-out: KRAS G12D Binding IC50
# Outline: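 Each incubation ran at room temperature: enzyme with compound for 30 minutes, peptide for one hour, and detection reagents (0.4 nM europium anti-6×His, 5 nM streptavidin-d2) for one hour more. Protein and peptide stocks were each diluted to 20 nM before addition.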
# [3] = system: Phosphorylation of ERK1/2 in AsPC-1 cells; assay: Phospho-ERK1/2 MSD Assay; format: cell-based, human; conditions: Homo sapiens, ASPC1, 2 h, read-out: 2 h p-ERK (AsPC-1 cells), IC50
# Outline: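 Read-out: MSD electrochemiluminescent detection of phosphorylated ERK1/2 in whole-cell lysates, fitted to a 4-parameter logistic curve for IC50. Prior to lysis, AsPC-1 cells (25,000 per well) received a 2 h compound dose-response at 37 °C.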
# Sequence of His-tagged KRAS G12D protein (P01116 other isoform, or with tags, fused parts or gaps G12D): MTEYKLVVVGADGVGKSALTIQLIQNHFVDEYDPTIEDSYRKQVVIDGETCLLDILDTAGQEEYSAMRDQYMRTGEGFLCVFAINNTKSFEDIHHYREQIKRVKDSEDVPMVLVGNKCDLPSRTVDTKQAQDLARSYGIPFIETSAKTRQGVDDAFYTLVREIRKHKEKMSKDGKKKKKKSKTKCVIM
# Sequence of GDP-bound KRAS protein (aa 1-169), containing both G12D and C118A amino acid substitutions (P01116 other isoform, or with tags, fused parts or gaps G12D/C118A): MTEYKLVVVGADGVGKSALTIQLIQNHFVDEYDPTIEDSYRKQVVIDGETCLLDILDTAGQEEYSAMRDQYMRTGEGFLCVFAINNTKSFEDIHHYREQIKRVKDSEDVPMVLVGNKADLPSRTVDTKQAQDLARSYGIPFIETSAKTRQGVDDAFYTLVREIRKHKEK
structure (smiles),measurement,setting,value
"O=C1N[C@H]2CN(C[C@H]3C[C@H]32)c2nc(OC[C@@]34CCCN3C[C@H](F)C4)nc3c(F)c(ncc23)-c2c(c(Cl)cc3[nH]ncc23)CCC[C@@H]1F [Example 175, (23S,26R,27R,29S)-18-chloro-23,32-difluoro-4-(((2R,7aS)-2-fluorotetrahydro-1H-pyrrolo[1,2-a]pyrrol-7a(5H)-yl)methoxy)-1,3,5,9,14,15,25-heptaazaheptacyclo[24.4.1.1~6,10~.0~2,7~.0~11,19~.0~12,16~.0~27,29~]dotriaconta-2,4,6,8,10(32),11,13,16,18-nonaen-24-one]",IC50,[1],4 nM
same,IC50,AsPC-1 cells,123 nM
same,IC50,[2],5 nM
same,IC50,[3],27.7 nM
"O=C1CCCCc2c(Cl)cc3[nH]ncc3c2-c2ncc3c(nc(OC[C@@]45CCCN4C[C@H](F)C5)nc3c2F)N2C[C@@H](O)C[C@H](C2)N1 (racemic) [Example 275, (17R,19S)-9-chloro-30-fluoro-24-(((2R,7aS)-2-fluorotetrahydro-1H-pyrrolo[1,2-a]pyrrol-7a(5H)-yl)methoxy)-19-hydroxy-5,6,16,21,23,25,29-heptaazahexacyclo[24.3.1.1~17,21~.0~2,10~.0~3,7~.0~22,27~]hentriaconta-1(30),2,4,7,9,22,24,26,28-nonaen-15-one]",IC50,[1],3 nM
same,IC50,AsPC-1 cells,778 nM
same,IC50,[2],6 nM
same,IC50,[3],53.1 nM
"COc1c2ncc3c(nc(OC[C@@]45CCCN4C[C@H](F)C5)nc13)N1CCC[C@](C)(C1)NC(=O)CCCc1c(F)ccc3cc(O)cc-2c13 [Example 19, (15R)-22-Fluoro-8-(((2R,7aS)-2-fluorotetrahydro-1H-pyrrolo[1,2-a]pyrrol-7a(5H)-yl)methoxy)-27-hydroxy-31-methoxy-15-methyl-3,7,9,11,16-pentaazahexacyclo[19.7.1.1˜2,6˜.1˜11,15˜.0˜5,10˜.0˜25,29˜]hentriaconta-1(28),2(31),3,5,7,9,21,23,25(29),26-decaen-17-one]",IC50,[1],5 nM
same,IC50,AsPC-1 cells,5000 nM
same,IC50,[2],7 nM
same,IC50,[3],1860 nM
"O=C1CCCc2c(F)ccc3cc(O)cc(c23)-c2ncc3c(nc(OC[C@@]45CCCN4C[C@H](F)C5)nc3c2F)N2CCC[C@H](C2)O1 [Example 41, (15R)-22,31-Difluoro-8-(((2R,7aS)-2-fluorotetrahydro-1H-pyrrolo[1,2-a]pyrrol-7a(5H)-yl)methoxy)-27-hydroxy-16-oxa-3,7,9,11-tetraazahexacyclo[19.7.1.1˜2,6˜.1˜11,15˜.0˜5,10˜.0˜25,29˜]hentriaconta-1(28),2(31),3,5,7,9,21,23,25(29),26-decaen-17-one 2,2,2-trifluoroacetate salt]",IC50,[1],2 nM
same,IC50,AsPC-1 cells,47 nM
same,IC50,[2],3 nM
same,IC50,[3],3 nM
"Cc1cc2[nH]ncc2c2c1CCCOC(=O)O[C@@H]1CCCCN(C1)c1nc(OC[C@@H]3CCCN3C)nc3c(F)c-2ncc13 [Example 206, (26R)-32-fluoro-18-methyl-4-(((2S)-1-methyl-2-pyrrolidinyl)methoxy)-23,25-dioxa-1,3,5,9,14,15-hexaazahexacyclo[24.4.1.1~6,10~.0~2,7~.0~11,19~.0~12,16~]dotriaconta-2,4,6,8,10(32),11,13,16,18-nonaen-24-one]",IC50,[1],9 nM
same,IC50,AsPC-1 cells,2230 nM
same,IC50,[2],14 nM
same,IC50,[3],211 nM
"O=C1CCCCc2c(Cl)cc3[nH]ncc3c2-c2ncc3c(nc(OC[C@@]45CCCN4C[C@H](F)C5)nc3c2F)N2CCC[C@]3(C2)C[C@H](C3)N1 [Example 273, (1S,3R)-11-chloro-33-fluoro-25-(((2R,7aS)-2-fluorotetrahydro-1H-pyrrolo[1,2-a]pyrrol-7a(5H)-yl)methoxy)-4,14,15,20,24,26,28-heptaazaheptacyclo[26.3.1.1~1,3~.1~19,23~.0~10,18~.0~13,17~.0~22,27~]tetratriaconta-10,12,15,17,19(33),20,22,24,26-nonaen-5-one]",IC50,[1],2 nM
same,IC50,AsPC-1 cells,5000 nM
same,IC50,[2],3 nM
same,IC50,[3],1100 nM
"Cc1cc2[nH]ncc2c2c1CCCCC(=O)N[C@]1(C)CCCN(C1)c1nc(OC[C@@]34CCCN3C[C@H](F)C4)nc3c(F)c-2ncc13 [Example 20, (17R)-30-Fluoro-24-(((2R,7aS)-2-fluorotetrahydro-1H-pyrrolo[1,2-a]pyrrol-7a(5H)-yl)methoxy)-9,17-dimethyl-5,6,16,21,23,25,29-heptaazahexacyclo[24.3.1.1˜17,21˜.0˜2,10˜.0˜3,7˜.0˜22,27˜]hentriaconta-1(30),2,4,7,9,22,24,26,28-nonaen-15-one bis(2,2,2-trifluoroacetate)]",IC50,[1],22 nM
same,IC50,AsPC-1 cells,2220 nM
same,IC50,[2],20 nM
same,IC50,[3],823 nM
C[C@@]12CCCN(C1)c1nc(OC[C@@]34CCCN3C[C@H](F)C4)nc3c(F)c(ncc13)-c1cccc3ccc(F)c(c13)CCC(F)C(=O)N2 (mixture of isomers) [Example 11],IC50,[1],8 nM
same,IC50,AsPC-1 cells,1050 nM
same,IC50,[2],12 nM
same,IC50,[3],155 nM
O=C1CCCc2c(F)ccc3cc(O)cc(c23)-c2ncc3c(nc(OC[C@@]45CCCN4C[C@H](F)C5)nc3c2F)N2CCC[C@](CF)(C2)O1 [Example 42],IC50,[1],2 nM
same,IC50,AsPC-1 cells,414 nM
same,IC50,[2],4 nM
same,IC50,[3],38 nM
"O=C1CCCCc2c(Cl)cc3[nH]ncc3c2-c2ncc3c(nc(OC[C@@]45CCCN4C[C@H](F)C5)nc3c2F)N2CCC[C@H](C2)O1 [Example 36, (17R)-9-Chloro-30-fluoro-24-(((2R,7aS)-2-fluorotetrahydro-1H-pyrrolo[1,2-a]pyrrol-7a(5H)-yl)methoxy)-16-oxa-5,6,21,23,25,29-hexaazahexacyclo[24.3.1.1˜17,21˜.0˜2,10˜.0˜3,7˜.0˜22,27˜]hentriaconta-1(30),2,4,7,9,22,24,26,28-nonaen-15-one bis(2,2,2-trifluoroacetate)]",IC50,[1],1 nM
same,IC50,AsPC-1 cells,111 nM
same,IC50,[2],3 nM
same,IC50,[3],8 nM
"C#CCO[C@@H]1CN2CCC[C@@]2(COc2nc3c4cnc(c(F)c4n2)-c2c(c(Cl)cc4[nH]ncc24)CCCOC(=O)O[C@@H]2COCCN3C2)C1 [Example 369, (26S)-18-Chloro-32-fluoro-4-(((2S,7aS)-2-(2-propyn-1-yloxy)tetrahydro-1H-pyrrolo[1,2-a]pyrrol-7a(5H)-yl)methoxy)-23,25,28-trioxa-1,3,5,9,14,15 hexaazahexacyclo[24.4.1.1˜6,10˜.0˜2,7˜.0˜11,19˜.0˜12,16˜]dotriaconta-2,4,6,8,10(32),11,13,16,18-nonaen-24-one]",IC50,[1],8 nM
same,IC50,AsPC-1 cells,5000 nM
same,IC50,[2],13 nM
same,IC50,[3],363 nM
"O=C1OCCCc2c(Cl)cc(O)cc2-c2ncc3c(nc(OC[C@@]45CCCN4C[C@H](F)C5)nc3c2F)N2CCOC[C@H](C2)O1 [Example 355, (23S)-15-chloro-29-fluoro-4-(((2R,7aS)-2-fluorotetrahydro-1H-pyrrolo[1,2-a]pyrrol-7a(5H)-yl)methoxy)-13-hydroxy-20,22,25-trioxa-1,3,5,9-tetraazapentacyclo[21.4.1.1~6,10~.0~2,7~.0~11,16~]nonacosa-2,4,6,8,10(29),11,13,15-octaen-21-one]",IC50,[1],1 nM
same,IC50,AsPC-1 cells,82 nM
same,IC50,[2],2 nM
same,IC50,[3],5.2 nM
Fc1c2ncc3c(nc(OC[C@@]45CCCN4C[C@H](F)C5)nc13)N1CCC[C@@H](COCCCCc3c(Cl)cc4[nH]ncc4c3-2)C1 [Example 138],IC50,[1],2 nM
same,IC50,AsPC-1 cells,5000 nM
same,IC50,[2],4 nM
same,IC50,[3],13 nM
